Measurements: PMC9742639, “Inhibition of glycogen synthase kinase-3-beta (GSK3β) blocks nucleocapsid phosphorylation and SARS-CoV-2 replication” (Molecular Biomedicine, 2022)
Where “and” joins values, the source holds several entries; their conditions need not be identical. Identical values can stand only once. Like-named read-outs stand apart in the source and are kept apart here. Square brackets hold non-standard residues; d marks the D form. Primed or numbered codes have the meaning given here. Ends that are not written are not given here. pS′ = not defined here; pT′ = not defined here

Legend:
[1] = test system: HCoV-229E; assay: High-content screen / dose-response of HCoV-229E-infected Huh-7.5.1 cells (dsRNA); format: cell-based
[2] = test system: SARS-CoV-2; assay: High-content screen / dose-response of SARS-CoV-2-infected Huh-7.5.1 cells (dsRNA, nucleocapsid); format: cell-based; details: for ED50, activity against SARS-CoV-2 / inhibition at 10 µM: Huh-7.5.1 cells; for ED50, activity against SARS-CoV-2: intracellular N protein; for inhibition at 10 µM: Severe acute respiratory syndrome coronavirus 2
[3] = target: T1, GSK3β (Homo sapiens, UniProt P49841); assay: In vitro inhibition of GSK3β, ADP-Glo Kinase Assay; format: biochemical; details: read-out: IC50, GSK3β enzymatic activity
T1 construct: GST; purchased SignalChem G09-10G
T1 sequence (P49841 whole entry): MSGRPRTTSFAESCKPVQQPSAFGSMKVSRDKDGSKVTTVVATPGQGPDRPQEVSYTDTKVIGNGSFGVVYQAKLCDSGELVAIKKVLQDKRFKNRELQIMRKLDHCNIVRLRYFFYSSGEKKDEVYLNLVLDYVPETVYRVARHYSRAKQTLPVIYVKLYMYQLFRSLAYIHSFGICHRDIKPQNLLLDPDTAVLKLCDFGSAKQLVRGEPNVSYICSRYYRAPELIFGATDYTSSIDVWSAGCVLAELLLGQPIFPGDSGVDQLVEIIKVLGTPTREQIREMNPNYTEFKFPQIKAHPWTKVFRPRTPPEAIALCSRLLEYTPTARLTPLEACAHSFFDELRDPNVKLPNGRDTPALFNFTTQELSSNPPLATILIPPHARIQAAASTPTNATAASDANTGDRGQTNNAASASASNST
Procedure: All protein kinase reactions were performed with the ADP-Glo Kinase Assay from ProMega (Madison, WI, USA). Substrate peptides were assayed at a final concentration of ~ 250 μM with 250 μM ATP for 30 min at 30 °C in a final volume of 25 μL. Recombinant nucleocapsid was similarly assayed at a final concentration of 13.4 ng/μL. The concentrations of recombinant protein kinases used were ~ 2 ng/μL.
Supplemental Figure S3: in vitro inhibition of GSK3. ADP-Glo^TM Kinase Assay normalized to the negative control (100% kinase activity), dose-response was analyzed by non-linear regression.

[4] = test system: SARS-CoV-2; assay: Viral titer from 48-h SARS-CoV-2-infected Calu-3 cells; format: cell-based; details: 48 h after infection and treatment, 100 μM
[5] = test system: HCoV-229E; assay: Chou-Talalay synergy with Remdesivir in HCoV-229E-infected cells; format: cell-based; details: Chou-Talalay method, CI < 1 synergistic
Procedure: Statistical analyses were performed and figures were prepared using GraphPad Prism 9™ (GraphPad Software, Inc.). Imbedded blots and fluorescent images were generated using GIMP^©. Chou-Talalay synergy analysis was performed using CompuSyn (ComboSyn Inc.). CI values < 1 are defined as synergistic, CI = 1 as additive, and CI > 1 as antagonistic.
Supplemental Figure S4: Synergy experiment. Dose-response combination of Remdesivir (Rem) and T-1686568 (T2) using CompuSyn V1.0. Representative experiment of two independent experiments.

[6] = test system: SARS-CoV-2; assay: SARS-CoV-2 infection of primary donor-derived colon organoids (intracellular N protein); format: cell-based; details: donor intestinal organoids monolayer, 72 hrs post-infection
[7] = test system: SARS-CoV-2; format: cell-based
[8] = in vitro; details: human
Procedure: (§1) Total number of cells (via nuclei staining) and number of virus-infected cells (via dsRNA and nucleocapsid staining) was measured using the CellInsight CX5 High Content Screening platform (Thermo Fisher), as previously described [24]. Briefly, cell nuclei are stained with Hoechst (33342) for detection at the 350/461 nm wavelength and a region of interest (ROI) marks each cell, which is verified using cell membrane imaging in the bright field. The ROI includes the areas where dsRNA (485/521 nm wavelength) and SARS-CoV-2 nucleocapsid (533/588 nm wavelength) are localized. The software (HCS Studio Cell Analysis Software, version 4.0) tallies ROIs where dsRNA and nucleocapsid are located within stained nuclei by compiling pixel area and intensity measurements. The fluorescence emitted by the dsRNA and nucleocapsid are then quantified for each well. The total intensity of each well indicates the viral load and is normalized against non-infected cells and untreated infected cells. Cell loss (from cytotoxicity or poor adherence) was quantified using the same stain (Hoechst 33342) and was used to normalize the changes in viral load resulting from a decrease in cell numbers. Based on average variation in control treatments between experiments, significant cell loss was considered a loss of > 20% cells relative to the non-infected control.

[9] = test system: Huh-7.5.1 cells; assay: Cell loss / toxicity to Huh-7.5.1 host cells (nuclei count); details: 10 µM, infected Huh-7.5.1 cells
Procedure: as §1

[10] = target: T2, GSK3b (Homo sapiens, UniProt P49841); assay: In vitro phosphorylation of nucleocapsid peptides, ADP-Glo; format: biochemical; details: for Phosphorylation by GSK3b (Table 2): Mean ± Standard deviation, n = 3, no peptide substrate 1995 ± 133; for Relative phosphorylation by GSK3b: kinase with ATP alone, no peptide = 100, peptide ~250 μM, ATP 250 μM, 30 min
T2 construct: GST; purchased SignalChem G09-10G
T2 sequence (P49841 whole entry): as above

[11] = target: PKACa (Homo sapiens, UniProt P17612); assay: as above; format: biochemical; details: kinase with ATP alone, no peptide = 100; peptide ~250 μM, ATP 250 μM, 30 min
[12] = target: T3, PKCa (Homo sapiens, UniProt P17252); assay: as above; format: biochemical; details: for Phosphorylation by PKCa (Table 2): Mean ± Standard deviation, n = 3, no peptide substrate 1282 ± 51; for Relative phosphorylation by PKCa: kinase with ATP alone, no peptide = 100, peptide ~250 μM, ATP 250 μM, 30 min
T3 construct: GST; purchased SignalChem P61-18G

[13] = target: CDK2 + Cyclin A2 (Homo sapiens, UniProt P24941); assay: as above; format: biochemical; details: kinase with ATP alone, no peptide = 100; peptide ~250 μM, ATP 250 μM, 30 min
[14] = target: T4, CK1d (Homo sapiens, UniProt P48730); assay: as above; format: biochemical; details: kinase with ATP alone, no peptide = 100; peptide ~250 μM, ATP 250 μM, 30 min
T4 construct: GST; purchased SignalChem C65-10G
T4 sequence (P48730 whole entry): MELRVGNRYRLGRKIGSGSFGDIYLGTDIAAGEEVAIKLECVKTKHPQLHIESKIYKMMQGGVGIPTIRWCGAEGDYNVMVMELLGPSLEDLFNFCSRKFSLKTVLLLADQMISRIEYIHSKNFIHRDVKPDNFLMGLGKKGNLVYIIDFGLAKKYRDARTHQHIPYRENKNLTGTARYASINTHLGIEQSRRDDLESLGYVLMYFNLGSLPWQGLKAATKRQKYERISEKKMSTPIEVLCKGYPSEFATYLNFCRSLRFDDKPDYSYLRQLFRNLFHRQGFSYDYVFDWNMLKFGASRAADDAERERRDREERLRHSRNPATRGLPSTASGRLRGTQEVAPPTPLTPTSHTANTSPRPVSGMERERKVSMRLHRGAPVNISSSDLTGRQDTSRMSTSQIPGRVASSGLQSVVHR

[15] = target: T5, CK1g1 (Homo sapiens, UniProt Q9HCP0); assay: as above; format: biochemical; details: kinase with ATP alone, no peptide = 100; peptide ~250 μM, ATP 250 μM, 30 min
T5 construct: GST; purchased SignalChem C68-11G
T5 sequence (Q9HCP0 whole entry): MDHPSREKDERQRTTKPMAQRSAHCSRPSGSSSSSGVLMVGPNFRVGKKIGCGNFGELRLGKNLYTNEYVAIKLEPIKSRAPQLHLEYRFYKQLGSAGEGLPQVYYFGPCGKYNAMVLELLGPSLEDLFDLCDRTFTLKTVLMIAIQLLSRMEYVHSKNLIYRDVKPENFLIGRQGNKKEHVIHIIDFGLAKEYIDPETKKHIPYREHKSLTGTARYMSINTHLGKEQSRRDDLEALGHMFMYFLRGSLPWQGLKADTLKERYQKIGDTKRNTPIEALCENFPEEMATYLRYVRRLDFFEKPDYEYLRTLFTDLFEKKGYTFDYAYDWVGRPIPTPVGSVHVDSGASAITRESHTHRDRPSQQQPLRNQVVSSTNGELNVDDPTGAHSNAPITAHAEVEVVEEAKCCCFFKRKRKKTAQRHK

[16] = target: T6, ERK1 (Homo sapiens, UniProt P27361); assay: as above; format: biochemical; details: kinase with ATP alone, no peptide = 100; peptide ~250 μM, ATP 250 μM, 30 min
T6 construct: GST; purchased SignalChem M29-10G
T6 sequence (P27361 whole entry): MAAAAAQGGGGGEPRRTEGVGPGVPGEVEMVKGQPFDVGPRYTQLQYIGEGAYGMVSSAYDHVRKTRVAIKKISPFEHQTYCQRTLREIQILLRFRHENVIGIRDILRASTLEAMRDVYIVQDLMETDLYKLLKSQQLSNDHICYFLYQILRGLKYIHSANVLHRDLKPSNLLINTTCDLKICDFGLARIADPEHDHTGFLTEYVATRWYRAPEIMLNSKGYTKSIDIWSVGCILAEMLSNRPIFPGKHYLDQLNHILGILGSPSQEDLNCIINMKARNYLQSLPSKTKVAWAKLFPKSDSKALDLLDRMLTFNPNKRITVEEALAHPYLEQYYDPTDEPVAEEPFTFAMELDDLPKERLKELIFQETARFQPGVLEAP

[17] = target: T7, CK2a1 (Homo sapiens, UniProt P68400); assay: as above; format: biochemical; details: kinase with ATP alone, no peptide = 100; peptide ~250 μM, ATP 250 μM, 30 min
T7 construct: GST; purchased SignalChem C70-10G
T7 sequence (P68400 whole entry): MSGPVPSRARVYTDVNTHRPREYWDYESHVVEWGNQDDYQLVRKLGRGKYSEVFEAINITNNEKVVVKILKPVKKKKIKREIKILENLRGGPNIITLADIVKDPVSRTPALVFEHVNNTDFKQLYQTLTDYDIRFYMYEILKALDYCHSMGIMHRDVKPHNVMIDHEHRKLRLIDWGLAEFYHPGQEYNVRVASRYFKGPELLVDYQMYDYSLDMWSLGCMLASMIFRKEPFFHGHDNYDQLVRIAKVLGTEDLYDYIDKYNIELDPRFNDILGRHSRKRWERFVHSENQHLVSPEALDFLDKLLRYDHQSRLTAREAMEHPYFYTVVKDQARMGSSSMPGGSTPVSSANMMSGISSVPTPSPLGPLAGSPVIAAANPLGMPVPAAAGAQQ

[18] = target: T8, CK1a1 (Homo sapiens, UniProt P48729); assay: as above; format: biochemical; details: kinase with ATP alone, no peptide = 100; peptide ~250 μM, ATP 250 μM, 30 min
T8 construct: GST; purchased SignalChem C64-10G
T8 sequence (P48729 whole entry): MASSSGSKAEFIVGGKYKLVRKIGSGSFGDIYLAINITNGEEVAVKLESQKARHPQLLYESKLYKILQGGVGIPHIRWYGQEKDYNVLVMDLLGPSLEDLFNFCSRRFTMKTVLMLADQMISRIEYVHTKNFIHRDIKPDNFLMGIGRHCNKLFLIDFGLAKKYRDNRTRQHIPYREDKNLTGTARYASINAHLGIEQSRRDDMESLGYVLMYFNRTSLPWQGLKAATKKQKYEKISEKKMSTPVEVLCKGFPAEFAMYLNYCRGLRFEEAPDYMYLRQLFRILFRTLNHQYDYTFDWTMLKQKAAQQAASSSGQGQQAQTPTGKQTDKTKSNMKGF

[19] = average of screens 1 and 2, read-out: Average SARS-CoV-2 Nucleocapsid inhibition
[20] = screen 1, read-out: SARS-CoV-2 inhibition (% Nucleocapsid) 1
[21] = screen 2, read-out: SARS-CoV-2 inhibition (% Nucleocapsid) 2
[22] = read-out: SARS-CoV-2 inhibition (% dsRNA)

Compound	ED50, activity against HCoV-229E [1]	ED50, activity against SARS-CoV-2 [2]	inhibition at 10 µM [2, 19] [%]	inhibition at 10 µM [2, 20] [%]	inhibition at 10 µM [2, 21] [%]	inhibition at 10 µM [2, 22] [%]	CC50 [8] [µM]	Average cell loss (%) [9] [%]	Phosphorylation by GSK3b (Table 2) [10]	Relative phosphorylation by GSK3b [10]	Relative phosphorylation by PKACa [11]	Phosphorylation by PKCa (Table 2) [12]	Relative phosphorylation by PKCa [12]	further results
CSc1ccc(-n2cnc3ccc(-c4nnc(CCc5cccc(C#N)c5)o4)cc32)cc1 [P-0717632]	~ 3 μM	2.7 µM	79.3	75.2	83.3	68.2	> 100	24.4						ED50, activity against SARS-CoV-2 ([2]; listed as T-1686568): ~ 3 μM; ED80 ([2]; infected Huh-7.5.1 cells): 10 µM; IC50 [3]: 0.102 µM; reduction of viral titres [4]: 2 log; average Combination Index (CI) [5]: 0.7; effect on intracellular N protein levels [6]: greatly decrease intracellular N protein levels; N protein in remaining infected cells [7]: accumulated; S protein expression [7]: reduced
C[S+]([O-])c1ccc(-c2coc3ccc(-c4nnc(SCc5cccc(F)c5)o4)cc23)cc1 (stereo not shown) [P-7657632]	~ 3 μM	~ 3 μM and 2.9 μM	93.1	100	86.2	100	39	25.4						
CSc1ccc(-c2coc3ccc(-c4nnc(N)o4)cc23)cc1Cl [P-9071942]	~ 3 μM	~ 3 μM and 3.3 μM	94.5	100	89.1	100	27	29.9						
RGGSQASSRSS(pS)RS (RGGSQASSRSS[pS′]RS) [SCV2-N [177-190] - pS188, synthetic peptide modeled after SARS-CoV-2 nucleocapsid phosphorylation sites, pre-phosphorylated at S188]									24,585 ± 645	1209	128	3861 ± 71	389	
RNSTPGSSRGT(pS)PAR (RNSTPGSSRGT[pS′]PAR) [SCV2-N [195-209] - pS206, synthetic peptide modeled after SARS-CoV-2 nucleocapsid phosphorylation sites, pre-phosphorylated at S206]									24,082 ± 381	1068	205	1531 ± 47		Relative phosphorylation by CDK2 + Cyclin A2 [13]: 100; Relative phosphorylation by CK1d [14]: 105; Relative phosphorylation by CK1g1 [15]: 105; Relative phosphorylation by ERK1 [16]: 100
SQASSRSSSR(pS)RNS (SQASSRSSSR[pS′]RNS) [SCV2-N [180-193] - pS190, synthetic peptide modeled after SARS-CoV-2 nucleocapsid phosphorylation sites, pre-phosphorylated at S190]									2957 ± 3	111	312	4161 ± 66	418	Relative phosphorylation by CK2a1 [17]: 100
SSRSRNSSRNS(pT)PG (SSRSRNSSRNS[pT′]PG) [SCV2-N [187-200] - pT198, synthetic peptide modeled after SARS-CoV-2 nucleocapsid phosphorylation sites, pre-phosphorylated at T198]									23,031 ± 486	1042	157	7032 ± 319	553	Relative phosphorylation by CDK2 + Cyclin A2 [13]: 101; Relative phosphorylation by CK1a1 [18]: 250; Relative phosphorylation by CK1d [14]: 152; Relative phosphorylation by CK2a1 [17]: 102; Relative phosphorylation by ERK1 [16]: 100
